Experimental data published in US9051342B2 (priority 2004, dated 2015).

| melting point | SMILES |
| --- | --- |
| 297 to 299 °C | O=C(O)c1cccc(-n2cc(-c3ccncn3)cn2)c1 [Compound 117, 3-(4-Pyrimidin-4-yl-pyrazol-1-yl)-benzoic acid] |
| 298 to 299 °C | Cc1ccc(-c2cnn(-c3ccc(C(=O)O)cc3)c2)cc1 [Compound 51, 4-(4-p-Tolyl-pyrazol-1-yl)-benzoic acid] |
| 205 to 208 °C | CC(C)c1ccc(-c2nn(-c3ccc(C(=O)O)cc3)c(=O)s2)cc1 [Compound 281, 4-[5-(4-isopropylphenyl)-2-oxo-1,3,4-thiadiazol-3(2H)-yl]benzoic acid] |
| 220 to 221 °C | CC(C)c1ccc(-c2nn(-c3cccc(C(=O)O)c3)c(=O)s2)cc1 [Compound 284, 3-[5-(4-Isopropyl-phenyl)-2-oxo-[1,3,4]thiadiazol-3-yl]-benzoic acid] |
| 264 to 265 °C | O=C(O)c1cccc(-n2cc(-c3ccc4c(c3)OCO4)cn2)c1 [Compound 111, 3-(4-Benzo[1,3]dioxol-5-yl-pyrazol-1-yl)-benzoic acid] |
| 285 to 288 °C | Cc1ccc(-n2cc(-c3ccc(C(=O)O)cc3)cn2)cc1Cl [Compound 231, 4-[1-(3-Chloro-4-methyl-phenyl)-1H-pyrazol-4-yl]-benzoic acid] |
| 307 to 311 °C | O=C(O)c1cccc(-n2cnc(-c3ccc(O)cc3)n2)c1 [Compound 9, 3-[3-(4-Hydroxy-phenyl)-[1,2,4]triazol-1-yl]-benzoic acid] |
| 225 to 226 °C | O=C(O)c1cccc(-n2cc(-c3ccccc3)cn2)c1 [Compound 98, 3-(4-Phenyl-pyrazol-1-yl)-benzoic acid] |
| 235 to 237 °C | O=C(O)c1cccc(-n2cc3c(n2)-c2cccc(OC(F)F)c2CC3)c1 [Compound 183, 3-(6-Difluoromethoxy-4,5-dihydro-benzo[g]indazol-2-yl)-benzoic acid] |
| 217 to 219 °C | CC(C)c1ccc(-c2nn(Cc3ccc(C(=O)O)cc3)c(=O)o2)cc1 [Compound 278, 4-{[5-(4-isopropylphenyl)-2-oxo-1,3,4-oxadiazol-3(2H)-yl]methyl}benzoic acid] |
| 266 to 268 °C | O=C(O)c1ccc(-c2cnn(-c3ccc4c(c3)OCO4)c2)cc1 [Compound 227, 4-(1-Benzo[1,3]dioxol-5-yl-1H-pyrazol-4-yl)-benzoic acid] |
| 282 to 284 °C | O=C(O)c1cccc(-n2cc(-c3ccc(O)cc3)cn2)c1 [Compound 100, 3-[4-(4-Hydroxy-phenyl)-pyrazol-1-yl]-benzoic acid] |
| 267 to 269 °C | O=C(O)c1ccc(-n2cc(-c3ccccc3)cn2)cc1 [Compound 99, 4-(4-Phenyl-pyrazol-1-yl)-benzoic acid] |
| 162 to 164 °C | Cc1cccc(-n2ccc(-c3cccc(C(=O)O)c3)n2)c1 [Compound 167, 3-(1-m-Tolyl-1H-pyrazol-3-yl)-benzoic acid] |
| 178 to 180 °C | O=C(O)c1cccc(-n2cc(-c3cccc(Cl)c3)cn2)c1 [Compound 210, 3-[4-(3-Chloro-phenyl)-pyrazol-1-yl]-benzoic acid] |
| 313 to 314 °C | O=C(O)c1ccc(-n2cc(-c3ccc(Cl)cc3)nn2)cc1 [Compound 269, 4-[4-(4-Chloro-phenyl)-[1,2,3]triazol-1-yl]-benzoic acid] |
| 246 to 248 °C | O=C(O)c1ccc(-c2cnn(-c3ccc(OC(F)(F)F)cc3)c2)cc1 [Compound 134, 4-[1-(4-Trifluoromethoxy-phenyl)-1H-pyrazol-4-yl]-benzoic acid] |
| 286 to 289 °C | O=C(O)c1ccc(-c2cnn(-c3ccc(Cl)c(Cl)c3)c2)cc1 [Compound 233, 4-[1-(3,4-Dichloro-phenyl)-1H-pyrazol-4-yl]-benzoic acid] |

| melting point | SMILES |
| --- | --- |
| 289 to 290 °C | COc1ccc(-c2cnn(-c3ccc(C(=O)O)cc3)c2)cc1 [Compound 50, 4-[4-(4-Methoxy-phenyl)-pyrazol-1-yl]-benzoic acid] |
| 290 to 292 °C | COc1ccc2c(c1)-c1nn(-c3ccc(C(=O)O)cc3)cc1CC2 [Compound 145, 4-(8-Methoxy-4,5-dihydro-benzo[g]indazol-2-yl)-benzoic acid] |
| 135 to 138 °C | O=C(O)c1cccc(-c2cnn(-c3ccc(Cl)c(Cl)c3)c2)c1 [Compound 232, 3-[1-(3,4-Dichloro-phenyl)-1H-pyrazol-4-yl]-benzoic acid] |
| 153 to 154 °C | COc1cccc(-n2ccc(-c3cccc(C(=O)O)c3)n2)c1 [Compound 77, 3-[1-(3-Methoxy-phenyl)-1H-pyrazol-3-yl]-benzoic acid] |
| 294 to 295 °C | COc1ccc(-c2cn(-c3ccc(C(=O)O)cc3)nn2)cc1 [Compound 203, 4-[4-(4-Methoxy-phenyl)-[1,2,3]triazol-1-yl]-benzoic acid] |
| 240 to 243 °C | CC(C)c1ccc(-n2ccc(-c3ccc(C(=O)O)cc3)c2)cc1 [Compound 106, 4-[1-(4-Isopropyl-phenyl)-1H-pyrrol-3-yl]-benzoic acid] |
| 225 to 227 °C | O=C(O)c1ccc(-n2cc(-c3cccc(OC(F)(F)F)c3)cn2)cc1 [Compound 208, 4-[4-(3-Trifluoromethoxy-phenyl)-pyrazol-1-yl]-benzoic acid] |
| 178 to 181 °C | Cc1ccc(-n2ccc(-c3cccc(C(=O)O)c3)c2)cc1 [Compound 156, 3-(1-p-Tolyl-1H-pyrrol-3-yl)-benzoic acid] |
| 225 to 227 °C | O=C(O)c1cccc(-n2ccc(-c3ccc(C(F)(F)F)cc3)n2)c1 [Compound 94] |
| 258 to 260 °C | O=C(O)c1ccc(-c2cnn(-c3ccc(F)cc3F)c2)cc1 [Compound 180, 4-[1-(2,4-Difluoro-phenyl)-1H-pyrazol-4-yl]-benzoic acid] |
| 259 to 261 °C | O=C(O)c1cccc(-n2cnc(-c3ccc(OCc4ccccc4)cc3)n2)c1 [Compound 10, 3-[3-(4-Benzyloxy-phenyl)-[1,2,4]triazol-1-yl]-benzoic acid] |
| > 310 °C | O=C(O)c1cccc(-c2ncn(-c3ccc(F)cc3)n2)c1 [Compound 13, 3-[1-(4-Fluoro-phenyl)-1H-[1,2,4]triazol-3-yl]-benzoic acid] |
| 161 to 163 °C | Cc1ccccc1-n1ccc(-c2cccc(C(=O)O)c2)c1 [Compound 240, 3-(1-o-Tolyl-1H-pyrrol-3-yl)-benzoic acid] |
| 292 to 294 °C | O=C(O)c1ccc(-n2cc(-c3ccccc3F)nn2)cc1 [Compound 264, 4-[4-(2-Fluoro-phenyl)-[1,2,3]triazol-1-yl]-benzoic acid] |
| 288 to 290 °C | COc1cccc2c1CCc1cn(-c3ccc(C(=O)O)cc3)nc1-2 [Compound 148, 4-(6-Methoxy-4,5-dihydro-benzo[g]indazol-2-yl)-benzoic acid] |
| 277 to 278 °C | O=C(O)c1ccc(-n2cc3c(n2)-c2cccc(OC(F)F)c2C3)cc1 [Compound 188, 4-(5-Difluoromethoxy-4H-indeno[1,2-c]pyrazol-2-yl)-benzoic acid] |
| 211 to 213 °C | O=C(O)c1ccc(-n2cc(-c3cccc(Oc4ccccc4)c3)cn2)cc1 [Compound 215, 4-[4-(3-Phenoxy-phenyl)-pyrazol-1-yl]-benzoic acid] |
| 205 to 206 °C | O=C(O)c1cccc(-c2cnn(-c3ccc(Cl)cc3)c2)c1 [Compound 83, 3-[1-(4-Chloro-phenyl)-1H-pyrazol-4-yl]-benzoic acid] |
